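Step 1: Grow cells in 96-well plates. Step 2: Expose to compound for 48 hours at 5 concentrations. Step 3: Interpolate endpoints linearly; if unreached, use highest concentration. Here, GI50 denotes the concentration required for 50% inhibition of growth.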 Calls of active or inactive are those of the source. No stated cut-off is given here; in the data, active = GI50 up to about 1.1 µM and inactive = higher.

Some test systems named below: MOLT-4; NCI-H460; HL-60; K562; NCI-H23; OVCAR-8; A498; SNB-19; HCT-15; NCI-H226; EKVX; SK-MEL-28; SK-MEL-2; HCT-116; MDA-N; SK-OV-3.
Holding throughout (test): DTP human tumour cell line panel, 48 h

On to `Cc1cccc(N(CCC#N)S(=O)(=O)c2ccccc2)c1`, for which the GI50 in the assay with MOLT-4, with NCI-H460, with HL-60, in the assay with K562, in the assay on NCI-H23 and in the assay with OVCAR-8 was > 100 µM (inactive) in each case. Also, the GI50 (usually the concentration giving 50% growth inhibition) in the assay with A498 was > 100 µM (inactive); in the assay with SNB-19, > 100 µM (inactive); with HCT-15 it was over 10 µM; in the assay with NCI-H226, > 100 µM (inactive); with EKVX it was > 100 µM (inactive); in the assay on SK-MEL-28 it was > 100 µM (inactive). The GI50 in the assay with SK-MEL-2, in the assay with HCT-116, in the assay on MDA-N and with SK-OV-3 was > 100 µM (inactive) in each case.
Regarding `NC1CC(=O)c2c(Cl)sc(Cl)c21` (stereo not drawn), the GI50 was 2.18 µM (inactive) with MOLT-4; 14.5 µM (inactive) in the assay on NCI-H460; 1.6 µM (inactive) with HL-60; 2.03 µM (inactive) with K562; 10.5 µM (inactive) in the assay on NCI-H23; 5.46 µM (inactive) with OVCAR-8. Also, the GI50 is 15.3 µM (inactive) in the assay with A498; 13.2 µM (inactive) in the assay with SNB-19; 1.63 µM in the assay with HCT-15; 14.4 µM (inactive) in the assay with NCI-H226; 2 µM (inactive) with EKVX; 1.73 µM (inactive) in the assay with SK-MEL-28. Besides, the GI50 in the assay with SK-MEL-2 was 12.4 µM (inactive); in the assay with HCT-116, 1.43 µM (inactive); with MDA-N, 4.56 µM (inactive); in the assay with SK-OV-3, 14.4 µM (inactive).
As to `COc1c(/C=C/C=O)cc2c(c1OC)OCO2`, the GI50 was 20.5 µM (inactive) with MOLT-4; 14.7 µM (inactive) in the assay with NCI-H460; 23.6 µM (inactive) with HL-60; 30.4 µM (inactive) in the assay on NCI-H23; 33.6 µM (inactive) in the assay on OVCAR-8; 1.21 µM (inactive) with A498. The GI50 was 16.4 µM (inactive) in the assay with SNB-19; 15.3 µM in the assay on HCT-15; 2.96 µM (inactive) in the assay on NCI-H226; 55.3 µM (inactive) in the assay with EKVX; > 100 µM (inactive) in the assay with SK-MEL-28; 23.4 µM (inactive) with SK-MEL-2. For the same molecule, the GI50 in the assay with HCT-116 was 34 µM (inactive); in the assay with MDA-N it was 24.5 µM (inactive); in the assay on SK-OV-3, 60.8 µM (inactive).
For `CC(=O)Nc1c(S(=O)(=O)c2ccccc2)c(C)c(C)n1CCN(C)C`, the GI50 in the assay with MOLT-4, in the assay on NCI-H460, with HL-60, in the assay on K562, in the assay with NCI-H23 and in the assay with OVCAR-8 was > 100 µM (inactive) throughout. Further, the GI50 in the assay with A498 is > 100 µM (inactive); with SNB-19 it was > 100 µM (inactive); in the assay with HCT-15, over 100 µM; in the assay on NCI-H226, > 100 µM (inactive); in the assay on EKVX it was > 100 µM (inactive); with SK-MEL-28, > 100 µM (inactive). Moreover, the GI50 in the assay on SK-MEL-2, in the assay on HCT-116, in the assay with MDA-N and with SK-OV-3 was > 100 µM (inactive) throughout.
Consider `CSc1c(C#N)c(O)n(-c2ccc(C)cc2)c(=O)c1C#N`, for which the GI50 with MOLT-4, in the assay with NCI-H460, in the assay on HL-60, in the assay with K562, in the assay with NCI-H23 and in the assay with OVCAR-8 was > 100 µM (inactive) throughout. Further, the GI50 with A498 is > 100 µM (inactive); with SNB-19, > 100 µM (inactive); in the assay on HCT-15, over 100 µM; in the assay with NCI-H226 it was > 100 µM (inactive); in the assay on EKVX it was > 100 µM (inactive); in the assay on SK-MEL-28, > 100 µM (inactive). Also, the GI50 in the assay with SK-MEL-2, in the assay on HCT-116, with MDA-N and with SK-OV-3 was > 100 µM (inactive) throughout.
Turning to `COC(=O)C[C@H](COCc1ccccc1)NC(=O)C[C@H](COCc1ccccc1)NC(=O)C[C@H](COCc1ccccc1)NC(=O)OC(C)(C)C`, the GI50 was > 100 µM (inactive) in the assay with MOLT-4; > 100 µM (inactive) with HL-60; > 100 µM (inactive) with K562; > 100 µM (inactive) with NCI-H23; 23.8 µM (inactive) in the assay with OVCAR-8; 24 µM (inactive) in the assay with A498. Moreover, the GI50 in the assay on SNB-19 was > 100 µM (inactive); in the assay on HCT-15, over 100 µM; in the assay on NCI-H226, > 100 µM (inactive); with EKVX it was 25.8 µM (inactive); in the assay with SK-MEL-28 it was 73.1 µM (inactive); in the assay on SK-MEL-2, > 100 µM (inactive). Also, the GI50 in the assay with HCT-116 is 14.5 µM (inactive); in the assay with MDA-N, > 100 µM (inactive); with SK-OV-3, 60.8 µM (inactive).
As for `Cn1cnc([N+](=O)[O-])c1Sc1nc(N)nc2c1ncn2[C@H]1C[C@H](O)[C@@H](CO)O1`, the GI50 is 2.43 µM (inactive) in the assay on MOLT-4; 1.03 µM (active) in the assay with NCI-H460; 4.86 µM (inactive) with HL-60; 2.71 µM (inactive) in the assay on K562; 3.91 µM (inactive) in the assay on NCI-H23; 2.51 µM (inactive) in the assay with OVCAR-8. Also, the GI50 with A498 is 5.42 µM (inactive); with SNB-19 it was 62.1 µM (inactive); in the assay on HCT-15, 4.17 µM; in the assay with NCI-H226, 7.82 µM (inactive); with EKVX, 9.18 µM (inactive); in the assay on SK-MEL-28, 14.5 µM (inactive). Also, the GI50 in the assay with SK-MEL-2 is 2.45 µM (inactive); in the assay with HCT-116, 2.86 µM (inactive); in the assay on MDA-N, 4.36 µM (inactive); in the assay on SK-OV-3, 0.463 µM (active).
In the case of `CC(C)=CCc1c2c(c(O)c3c(=O)c4c(oc13)-c1ccc(O)cc1OC4C=C(C)C)C=CC(C)(C)O2` (stereo not drawn), the GI50 in the assay with NCI-H460 is 13.7 µM (inactive); in the assay on HL-60, 15.2 µM (inactive); with K562 it was 8.65 µM (inactive); with NCI-H23, 6.31 µM (inactive); in the assay with OVCAR-8 it was 13.3 µM (inactive); in the assay with A498, 19.5 µM (inactive). Also, the GI50 in the assay with SNB-19 was 15.3 µM (inactive); in the assay with HCT-15, 7.5 µM; in the assay on NCI-H226, 21.9 µM (inactive); with EKVX, 14.9 µM (inactive); in the assay with SK-MEL-28, 14.6 µM (inactive); in the assay with SK-MEL-2, 12.6 µM (inactive). Besides, the GI50 in the assay with HCT-116 is 8.45 µM (inactive); in the assay on MDA-N it was 13.2 µM (inactive); in the assay on SK-OV-3, 18.5 µM (inactive).
Take `Cc1ccc(OCC2OC(n3cnc4c(N(C)C)nc(Br)nc43)CC2Oc2ccc(C)cc2)cc1` (stereo not drawn): the GI50 in the assay with NCI-H460, in the assay with HL-60, in the assay with K562, in the assay with NCI-H23, with OVCAR-8 and in the assay on A498 was > 100 µM (inactive) in each case. Besides, the GI50 in the assay on SNB-19 was > 100 µM (inactive); with HCT-15 it was over 100 µM; in the assay with NCI-H226, > 100 µM (inactive); in the assay with EKVX it was > 100 µM (inactive); in the assay with SK-MEL-28, > 100 µM (inactive); with SK-MEL-2, > 100 µM (inactive). Moreover, the GI50 in the assay with HCT-116, in the assay on MDA-N and in the assay with SK-OV-3 was > 100 µM (inactive) in each case.
Turning to `Clc1cccc(N/N=N/c2ccc(-c3nc4ccccc4s3)cc2)c1`, the GI50 was 18.4 µM (inactive) in the assay on MOLT-4; 50.9 µM (inactive) with NCI-H460; 6.34 µM (inactive) in the assay on HL-60; 28.6 µM (inactive) with K562; 24.5 µM (inactive) in the assay with NCI-H23; 22.4 µM (inactive) in the assay on OVCAR-8. The GI50 in the assay on A498 was > 100 µM (inactive); in the assay on SNB-19, 86.1 µM (inactive); in the assay with HCT-15 it was 32.4 µM; in the assay on NCI-H226 it was 94.8 µM (inactive); in the assay with EKVX, > 100 µM (inactive); with SK-MEL-28, 42.8 µM (inactive). Moreover, the GI50 with SK-MEL-2 was 21.2 µM (inactive); in the assay with HCT-116, 32.7 µM (inactive); in the assay with MDA-N it was 26.4 µM (inactive); in the assay on SK-OV-3, 42.3 µM (inactive).
`CC(C)C1C(=O)N(c2c(F)c(F)c(F)c(F)c2F)C(=S)N1CC[S+]([O-])c1ccccc1` (stereo not drawn): the GI50 in the assay with MOLT-4 was 21.2 µM (inactive); with NCI-H460, 19.3 µM (inactive); with HL-60, 6.84 µM (inactive); in the assay on K562 it was 10.8 µM (inactive); in the assay with NCI-H23, 16.8 µM (inactive); in the assay on OVCAR-8, 17.1 µM (inactive). Besides, the GI50 with A498 was 16.6 µM (inactive); in the assay on SNB-19, 18.7 µM (inactive); with HCT-15, 16.7 µM; with NCI-H226, 20.4 µM (inactive); in the assay on EKVX, 16.4 µM (inactive); with SK-MEL-28 it was 16.9 µM (inactive). For the same molecule, the GI50 in the assay with SK-MEL-2 was 17.5 µM (inactive); in the assay on HCT-116 it was 18.8 µM (inactive); in the assay with MDA-N, 17.3 µM (inactive); in the assay with SK-OV-3 it was 19.6 µM (inactive).
Turning to `Cc1ccc(S(=O)(=O)NC(CO)C(=O)O)cc1` (stereo not drawn), the GI50 in the assay on MOLT-4, in the assay with NCI-H460, with HL-60, with K562, with NCI-H23 and in the assay on OVCAR-8 was > 100 µM (inactive) in each case. Also, the GI50 in the assay with A498 was > 100 µM (inactive); in the assay on SNB-19 it was > 100 µM (inactive); in the assay on HCT-15, over 100 µM; in the assay on NCI-H226, > 100 µM (inactive); with EKVX it was > 100 µM (inactive); in the assay on SK-MEL-28, > 100 µM (inactive). Moreover, the GI50 in the assay with SK-MEL-2, with HCT-116, with MDA-N and in the assay with SK-OV-3 was > 100 µM (inactive) in each case.
Turning to `N=c1oc2ccc(Cl)cc2cc1C(=O)NC1CCCCC1`, the GI50 is 44.2 µM (inactive) in the assay on MOLT-4; 59.6 µM (inactive) in the assay on NCI-H460; 39.7 µM (inactive) in the assay with HL-60; 66.7 µM (inactive) in the assay on K562; > 100 µM (inactive) in the assay with NCI-H23; > 100 µM (inactive) in the assay with OVCAR-8. Also, the GI50 is 63.8 µM (inactive) in the assay on A498; > 100 µM (inactive) in the assay on SNB-19; 37.8 µM with HCT-15; 90.4 µM (inactive) in the assay on NCI-H226; 98.6 µM (inactive) with SK-MEL-28; 47.6 µM (inactive) in the assay on SK-MEL-2. The GI50 is 55.5 µM (inactive) in the assay on HCT-116, 88.5 µM (inactive) in the assay on MDA-N and > 100 µM (inactive) in the assay on SK-OV-3.

The record behind these values is ChEMBL document CHEMBL1201862, “PubChem BioAssay data set” (2004).
